From patent US12447151B2, “Alkyne derivative, preparation method for same, and uses thereof” (ZHEJIANG HISUN PHARMACEUTICAL CO., LTD., priority 2019, dated 2025) come the findings set out here.

A short description of series [1]: Metabolic stability in liver microsomes. The class given is in vitro ADME. The settings on record: human liver microsomes 0.5 mg/mL, 1 μM compound, NADPH 1 mM; read-out: half-life period/(T1/2, min). As to the method: The test compound was co-incubated with human liver microsomes, and coenzyme NADPH was added to initiate the reaction. At 0, 5, 15, 30 and 60 minutes, 20 μL of incubation solution was taken out and transferred to 200 μL of acetonitrile containing internal standard to stop the reaction. After protein precipitation, centrifugation was performed at 3,700 rpm for 10 minutes and the supernatant was taken. The supernatant was diluted 1:1 with water and analyzed by LC-MS/MS method. According to the elimination half-life of the test compound in the incubation system, the in vitro intrinsic clearance rate was calculated. Midazolam was used as the internal reference compound and incubated for two aliquots in parallel.
The ratio of peak area of the analyte/internal standard (Aanalyte/AIS) was obtained by the instrument. The remaining percentage (% Control) was calculated from the ratio of Aanalyte/AIS in the non-zero time point sample to the zero time point sample. Ln (% Control) versus incubation time was plotted and a linear fit was performed. The clearance constant (k, min^−1), the clearance half-life (T1/2, min) and the in vitro intrinsic clearance rate (CLint, mL·min^−1·mg^−1 proteins) of the test compound were calculated by the following equations.
Cprotein(mg·mL^−1) refers to the concentration of microsomal protein in the incubation system.
(In general: Liver microsomes are a subcellular fraction often used to study metabolism.)

In series [2] the target is recombinant human PI3Kγ (Homo sapiens (Human), UniProt P48736). Briefly: Inhibitory activity on PI3K kinase (ADP-Glo Kinase Assay). To be noted: for IC50: ADP-Glo, ATP 10 μM. The class given is biochemical. An excerpt:
The following method is used to determine the degree of inhibition of recombinant human PI3Kα, PI3Kβ, PI3Kγ and PI3Kδ kinase activity by the compounds of the present invention under in vitro conditions. Promega's ADP-Glo Kinase Assay Kit (Cat. No. V9102) was used in this method. The above kit was a luminescence kinase detection kit, which was used to detect the ADP content produced by the kinase reaction. The ADP content was positively correlated with the kinase activity. By measuring the ADP content, the inhibition of the compound on the activity of PI3Kα, PI3Kβ, PI3Kγ and PI3Kδ kinases was reflected. For detailed experimental operations, please refer to the kit instructions. Recombinant human PI3Kα, PI3Kγ, and PI3Kδ were purchased from Invitrogen, and PI3Kβ was purchased from Promega (category numbers were PI3Kα: PV4788; PI3Kβ: V1751; PI3Kγ: PV4786 and PI3Kδ: PV6451 separately).
On the technique in general: In ADP-Glo the light output rises with the ADP produced.

Series [3] is described as follows: Oral pharmacokinetics in ICR mice. The class given is in vivo. The settings on record: male, mouse, plasma, Oral (5 mg/kg); for AUC(0-inf): read-out: Area under the curve AUC0-∞; for bioavailability: read-out: Bioavailability F; for Cmax: read-out: Plasma concentration Cmax. The procedure:
Using ICR mice as the test animals, the mice were intragastrically administrated with the compound of the present invention. LC/MS/MS method was used to determine the drug concentration in the plasma at different times to study the pharmacokinetic characteristics of the compound of the present invention in mice.
An appropriate amount of the compound to be tested was weighed, and 0.5% sodium carboxymethylcellulose (containing 0.05% Tween80) was added. The mixture was vortexed, and sonicated so that the solid was ultrasonically dispersed uniformly to obtain a suspension; 100 μL×2 of the preparation were aspirated, and placed in 1.5-mL EP tubes, stored at 2 to 8° C. The concentration of the preparation was 0.5 mg/mL.
Twenty-seven healthy adult ICR male mice were fasted overnight and then intragastrically administered (dosage of administration was 5 mg/kg), and fed 4 hours after administration.
At 0.083 hours, 0.25 hours, 0.5 hours, 1 hour, 2 hours, 4 hours, 8 hours, 12 hours, and 24 hours after administration, 80 μL of blood was collected from the orbital vein. About 0.08 mL of blood was collected, and placed in EDTA-K2 anticoagulation tube. […] The collected plasma was stored at −40 to −20° C. before analysis. The […] method was used to determine the content of the test compound in the plasma of ICR mice after intragastric administration of different compounds.

Series [4] is described as follows: Oral pharmacokinetics in SD rats. The format is in vivo. To be noted: male, rat, plasma, Oral (5 mg/kg); for AUC(0-inf): read-out: Area under the curve AUC0-∞; for bioavailability: read-out: Bioavailability F; for half-life: read-out: Half-life period T1/2 (converted); for Cmax: read-out: Plasma concentration Cmax. The procedure:
Using SD rats as test animals, the rats were intragastrically administrated with the compound of the present invention. LC/MS/MS method was used to determine the drug concentration in the plasma at different times to study the pharmacokinetic characteristics of the compound of the present invention in rats.
An appropriate amount of the compound to be tested was weighed, and 0.5% sodium carboxymethylcellulose (containing 0.05% Tween80) was added. The mixture was vortexed, and sonicated so that the solid was ultrasonically dispersed uniformly to obtain a suspension. 100 μL×2 of the filtered preparation were aspirated, and placed in 1.5-mL EP tubes, stored at […]. The concentration of the preparation was 0.5 mg/mL.
Nine healthy adult male SD rats were fasted overnight and then intragastrically administered (dosage of administration was 5 mg/kg), and fed 4 hours after administration.
About 0.2 mL of blood was collected from the jugular vein at 0.083 hours, 0.25 hours, 0.5 hours, 1 hour, 2 hours, 4 hours, 8 hours, 12 hours, and 24 hours after administration, and heparin sodium was used for anticoagulation. The collected blood samples were placed on ice and centrifuged to separate the plasma (centrifugation conditions: 1500 g, 10 minutes). The collected plasma was stored at −40 to −20° C. before analysis. The LC-MS/MS method was used to determine the content of the test compound in the plasma of SD rats after intragastric administration of different compounds.

Series [5] addresses recombinant human PI3Kα (Homo sapiens (Human), UniProt P42336). Description: Inhibitory activity on PI3K kinase (ADP-Glo Kinase Assay).
Excerpt: (§1) The following method is used to determine the degree of inhibition of recombinant human PI3Kα, PI3Kβ, PI3Kγ and PI3Kδ kinase activity by the compounds of the present invention under in vitro conditions. Promega's ADP-Glo Kinase Assay Kit (Cat. No. V9102) was used in this method. The above kit was a luminescence kinase detection kit, which was used to detect the ADP content produced by the kinase reaction. The ADP content was positively correlated with the kinase activity. By measuring the ADP content, the inhibition of the compound on the activity of PI3Kα, PI3Kβ, PI3Kγ and PI3Kδ kinases was reflected. […] Recombinant human PI3Kα, PI3Kγ, and PI3Kδ were purchased from Invitrogen, and PI3Kβ was purchased from Promega (category numbers were PI3Kα: PV4788; PI3Kβ: V1751; PI3Kγ: PV4786 and PI3Kδ: PV6451 separately).
Series [6] concerns the target recombinant human PI3Kβ (Homo sapiens (Human), UniProt P42338). Described as above.
Excerpt: as §1
Series [7] has as its target recombinant human PI3Kδ (Homo sapiens (Human), UniProt O00329). The series is described as above.
Excerpt: as §1

recombinant human PI3Kγ, sequence (P48736 whole entry): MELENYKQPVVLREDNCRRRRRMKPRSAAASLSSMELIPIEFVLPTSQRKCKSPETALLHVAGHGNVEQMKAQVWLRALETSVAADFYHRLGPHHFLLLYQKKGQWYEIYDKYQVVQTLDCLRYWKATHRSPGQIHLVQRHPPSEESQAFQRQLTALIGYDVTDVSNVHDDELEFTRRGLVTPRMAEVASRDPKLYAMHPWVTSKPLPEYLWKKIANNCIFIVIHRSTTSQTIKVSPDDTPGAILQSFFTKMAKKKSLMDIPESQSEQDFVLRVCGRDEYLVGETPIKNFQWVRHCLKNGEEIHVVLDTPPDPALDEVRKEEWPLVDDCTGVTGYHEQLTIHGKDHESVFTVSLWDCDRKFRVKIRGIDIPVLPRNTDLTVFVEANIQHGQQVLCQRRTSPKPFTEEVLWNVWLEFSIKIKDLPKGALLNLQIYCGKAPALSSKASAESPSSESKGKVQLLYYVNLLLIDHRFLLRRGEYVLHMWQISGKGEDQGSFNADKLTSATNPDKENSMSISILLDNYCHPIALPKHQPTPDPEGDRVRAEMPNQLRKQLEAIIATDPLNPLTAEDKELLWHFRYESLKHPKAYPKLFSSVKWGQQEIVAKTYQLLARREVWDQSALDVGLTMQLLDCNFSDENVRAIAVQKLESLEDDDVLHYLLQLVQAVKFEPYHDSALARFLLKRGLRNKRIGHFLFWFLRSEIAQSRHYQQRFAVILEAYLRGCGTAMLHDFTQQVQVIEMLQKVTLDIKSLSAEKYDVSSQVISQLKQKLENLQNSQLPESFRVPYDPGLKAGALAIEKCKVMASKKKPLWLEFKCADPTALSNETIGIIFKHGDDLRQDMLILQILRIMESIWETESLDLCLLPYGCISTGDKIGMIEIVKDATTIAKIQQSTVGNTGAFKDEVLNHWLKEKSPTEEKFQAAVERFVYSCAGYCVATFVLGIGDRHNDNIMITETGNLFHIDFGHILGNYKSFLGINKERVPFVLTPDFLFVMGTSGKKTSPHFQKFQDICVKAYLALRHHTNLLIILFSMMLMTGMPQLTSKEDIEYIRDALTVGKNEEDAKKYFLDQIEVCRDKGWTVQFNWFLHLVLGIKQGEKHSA
recombinant human PI3Kα, sequence (P42336 whole entry): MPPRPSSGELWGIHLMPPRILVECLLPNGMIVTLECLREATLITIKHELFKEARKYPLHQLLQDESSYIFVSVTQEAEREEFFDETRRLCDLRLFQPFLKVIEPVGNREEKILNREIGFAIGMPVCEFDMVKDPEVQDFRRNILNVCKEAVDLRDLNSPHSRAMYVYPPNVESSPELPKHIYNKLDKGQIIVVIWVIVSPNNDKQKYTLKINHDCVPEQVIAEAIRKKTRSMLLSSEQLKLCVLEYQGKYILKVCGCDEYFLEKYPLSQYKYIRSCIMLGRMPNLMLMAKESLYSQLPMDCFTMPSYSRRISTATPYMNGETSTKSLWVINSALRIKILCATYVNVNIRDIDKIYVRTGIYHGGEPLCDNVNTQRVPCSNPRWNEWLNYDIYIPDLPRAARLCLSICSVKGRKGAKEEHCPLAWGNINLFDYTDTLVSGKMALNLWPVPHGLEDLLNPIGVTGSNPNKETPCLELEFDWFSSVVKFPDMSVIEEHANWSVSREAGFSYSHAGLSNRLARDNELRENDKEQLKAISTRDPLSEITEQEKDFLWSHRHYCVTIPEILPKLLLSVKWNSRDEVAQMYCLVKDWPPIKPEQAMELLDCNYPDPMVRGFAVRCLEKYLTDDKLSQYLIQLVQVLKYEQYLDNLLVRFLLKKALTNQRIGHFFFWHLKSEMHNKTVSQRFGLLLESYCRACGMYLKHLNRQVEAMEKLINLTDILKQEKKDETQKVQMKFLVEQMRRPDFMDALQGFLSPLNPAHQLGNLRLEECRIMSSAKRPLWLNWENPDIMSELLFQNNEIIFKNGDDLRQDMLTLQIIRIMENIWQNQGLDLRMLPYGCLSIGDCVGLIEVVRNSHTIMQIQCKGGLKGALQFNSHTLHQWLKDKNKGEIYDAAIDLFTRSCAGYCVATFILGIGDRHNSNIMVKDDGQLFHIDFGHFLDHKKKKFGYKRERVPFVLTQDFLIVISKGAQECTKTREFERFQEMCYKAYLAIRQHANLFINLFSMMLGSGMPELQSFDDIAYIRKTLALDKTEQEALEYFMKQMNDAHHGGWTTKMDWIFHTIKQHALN
recombinant human PI3Kα, sequence (P27986 whole entry partner): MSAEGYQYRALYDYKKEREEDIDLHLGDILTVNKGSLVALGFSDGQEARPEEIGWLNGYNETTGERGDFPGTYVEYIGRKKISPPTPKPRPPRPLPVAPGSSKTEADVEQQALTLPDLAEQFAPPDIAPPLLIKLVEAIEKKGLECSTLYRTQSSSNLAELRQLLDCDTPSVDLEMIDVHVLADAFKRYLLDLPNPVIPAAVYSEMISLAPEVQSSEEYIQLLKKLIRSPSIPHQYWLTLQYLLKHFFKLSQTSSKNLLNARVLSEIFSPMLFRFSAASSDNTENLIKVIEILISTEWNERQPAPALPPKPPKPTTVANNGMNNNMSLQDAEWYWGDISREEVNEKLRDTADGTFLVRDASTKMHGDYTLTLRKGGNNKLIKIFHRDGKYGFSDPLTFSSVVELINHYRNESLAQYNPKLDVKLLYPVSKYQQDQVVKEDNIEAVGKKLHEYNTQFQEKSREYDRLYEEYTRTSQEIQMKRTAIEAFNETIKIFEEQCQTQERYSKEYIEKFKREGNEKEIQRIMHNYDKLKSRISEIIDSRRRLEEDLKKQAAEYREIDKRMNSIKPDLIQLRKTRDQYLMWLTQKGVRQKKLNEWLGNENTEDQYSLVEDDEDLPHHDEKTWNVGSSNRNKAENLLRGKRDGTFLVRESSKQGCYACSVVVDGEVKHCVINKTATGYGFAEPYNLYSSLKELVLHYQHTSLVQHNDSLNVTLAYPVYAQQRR
recombinant human PI3Kδ, sequence (O00329 whole entry): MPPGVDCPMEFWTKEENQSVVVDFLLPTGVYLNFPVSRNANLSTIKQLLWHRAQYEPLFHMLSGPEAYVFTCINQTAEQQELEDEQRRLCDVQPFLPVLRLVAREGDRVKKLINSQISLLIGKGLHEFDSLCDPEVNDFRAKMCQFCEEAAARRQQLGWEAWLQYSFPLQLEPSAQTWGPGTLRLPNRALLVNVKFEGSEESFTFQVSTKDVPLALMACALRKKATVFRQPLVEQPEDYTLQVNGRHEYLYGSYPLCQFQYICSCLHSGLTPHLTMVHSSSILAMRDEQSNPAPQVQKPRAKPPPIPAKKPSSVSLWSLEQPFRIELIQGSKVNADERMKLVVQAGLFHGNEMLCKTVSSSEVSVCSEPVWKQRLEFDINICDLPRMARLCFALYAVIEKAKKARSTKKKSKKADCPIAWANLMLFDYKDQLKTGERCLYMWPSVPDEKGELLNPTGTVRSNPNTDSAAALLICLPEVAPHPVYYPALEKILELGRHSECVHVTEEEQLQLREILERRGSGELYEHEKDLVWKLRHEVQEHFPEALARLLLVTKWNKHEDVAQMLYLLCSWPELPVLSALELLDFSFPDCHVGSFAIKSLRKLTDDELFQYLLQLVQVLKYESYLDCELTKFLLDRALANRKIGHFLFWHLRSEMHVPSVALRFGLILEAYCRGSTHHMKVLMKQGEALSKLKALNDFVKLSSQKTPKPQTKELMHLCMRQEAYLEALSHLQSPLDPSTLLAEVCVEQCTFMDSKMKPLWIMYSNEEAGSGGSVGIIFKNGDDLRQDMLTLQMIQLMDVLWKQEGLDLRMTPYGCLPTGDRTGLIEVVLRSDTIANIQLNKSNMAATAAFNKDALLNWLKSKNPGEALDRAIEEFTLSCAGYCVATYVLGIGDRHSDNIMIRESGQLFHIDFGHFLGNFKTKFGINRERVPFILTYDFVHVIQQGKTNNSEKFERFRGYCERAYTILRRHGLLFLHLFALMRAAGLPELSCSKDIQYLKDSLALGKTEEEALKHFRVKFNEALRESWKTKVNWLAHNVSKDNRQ
recombinant human PI3Kδ, sequence (P27986 whole entry partner): as the sequence (P27986 whole entry partner) above
recombinant human PI3Kβ, sequence (P42338 whole entry): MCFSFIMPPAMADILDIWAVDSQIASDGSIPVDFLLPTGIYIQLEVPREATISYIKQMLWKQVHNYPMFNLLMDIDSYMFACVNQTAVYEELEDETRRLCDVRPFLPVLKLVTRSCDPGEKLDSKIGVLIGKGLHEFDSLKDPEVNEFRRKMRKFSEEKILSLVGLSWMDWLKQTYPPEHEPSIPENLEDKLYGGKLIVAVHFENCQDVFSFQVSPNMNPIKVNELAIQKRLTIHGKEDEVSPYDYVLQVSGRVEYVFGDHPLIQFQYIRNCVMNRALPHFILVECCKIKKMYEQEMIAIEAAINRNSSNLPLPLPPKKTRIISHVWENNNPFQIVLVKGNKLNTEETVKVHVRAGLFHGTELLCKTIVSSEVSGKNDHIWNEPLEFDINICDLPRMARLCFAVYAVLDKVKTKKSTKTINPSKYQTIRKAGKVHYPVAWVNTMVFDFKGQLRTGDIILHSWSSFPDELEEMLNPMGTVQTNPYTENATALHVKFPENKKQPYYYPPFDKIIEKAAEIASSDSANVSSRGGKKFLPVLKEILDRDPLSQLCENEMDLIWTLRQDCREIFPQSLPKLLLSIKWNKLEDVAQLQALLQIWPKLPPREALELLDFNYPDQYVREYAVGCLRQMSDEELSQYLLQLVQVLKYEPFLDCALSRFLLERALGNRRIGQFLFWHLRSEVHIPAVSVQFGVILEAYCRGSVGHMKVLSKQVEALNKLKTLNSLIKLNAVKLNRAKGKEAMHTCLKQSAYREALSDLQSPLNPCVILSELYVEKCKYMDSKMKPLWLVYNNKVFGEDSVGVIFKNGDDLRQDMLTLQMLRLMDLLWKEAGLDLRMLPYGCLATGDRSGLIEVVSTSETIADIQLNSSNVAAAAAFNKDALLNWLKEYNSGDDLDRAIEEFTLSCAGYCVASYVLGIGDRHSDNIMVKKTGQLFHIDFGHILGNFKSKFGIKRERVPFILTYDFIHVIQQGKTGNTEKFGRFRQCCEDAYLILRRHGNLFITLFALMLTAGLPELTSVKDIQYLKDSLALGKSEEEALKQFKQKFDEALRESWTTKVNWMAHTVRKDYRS
recombinant human PI3Kβ, sequence (P27986 whole entry partner): as the sequence (P27986 whole entry partner) above

Take `C[C@H](NC(=O)c1c(N)nn2cccnc12)c1nc2cccc(C#Cc3cnn(C)c3)c2c(=O)n1-c1ccccc1` [Compound 21 in WO2015051244A1, reference compound]: in series [1], the half-life at 1 μM amounted to 113 min.

For `C[C@H](NC(=O)c1c(N)nn2cccnc12)c1cc2cccc(C#Cc3cnn(C4CC4)c3)c2c(=O)n1-c1ccccc1` [Example 1, (S)-2-amino-N-(1-(8-((1-cyclopropyl-1H-pyrazol-4-yl)ethynyl)-1-oxo-2-phenyl-1,2-dihydroisoquinolin-3-yl)ethyl)pyrazolo[1,5-a]pyrimidine-3-carboxamide], the IC50 worked out at 0.00046 µM in series [2], 0.101 µM in series [5], 0.237 µM in series [6] and 0.461 µM in series [7]. In addition, the “IC50 (PI3Kα)/IC50(PI3Kγ)” value in series [2] (kinase selectivity for PI3Kγ over PI3Kα) came to 220. The “IC50 (PI3Kβ)/IC50(PI3Kγ)” value in series [2] (kinase selectivity for PI3Kγ over PI3Kβ) is reported as 515. Further, the “IC50 (PI3Kδ)/IC50(PI3Kγ)” value in series [2] (kinase selectivity for PI3Kγ over PI3Kδ) was 1002. In series [1], the half-life at 1 μM came out at 11700 min. For the same molecule, the AUC(0-inf) in series [3] turned out to be 7470 ng·h/mL; in series [4], 3940 ng·h/mL. Moreover, the bioavailability in series [3] was 33%; in series [4], 27%. Further, the half-life is 3.1 h in series [3] (read-out: Half-life period T½ (converted)) and 5.1 h in series [4]. Besides, the Cmax in series [3] stood at 898 ng/mL; in series [4], 587 ng/mL.

On to `C[C@H](NC(=O)c1c(N)nn2cccnc12)c1nc2ccc(F)c(C#Cc3cnn(C4CC4)c3)c2c(=O)n1-c1ccccc1` [Example 3, (S)-2-amino-N-(1-(5-((1-cyclopropyl-1H-pyrazol-4-yl)ethynyl)-6-fluoro-4-oxo-3-phenyl-3,4-dihydroquinazolin-2-yl)ethyl)pyrazolo[1,5-a]pyrimidine-3-carboxamide], for which the half-inhibitory concentration (IC50) is 0.0007 µM in series [2], 0.143 µM in series [5], 0.552 µM in series [6] and 0.195 µM in series [7]. In series [1], the half-life at 1 μM amounted to 574 min.

On to `C[C@H](NC(=O)c1c(N)nn2cccnc12)c1cc2cccc(C#Cc3cnn(C)c3)c2c(=O)n1-c1ccccc1` [IPI-549, reference compound], for which the half-life at 1 μM in series [1] worked out at 195 min. Moreover, in series [3], the AUC(0-inf) is 2660 ng·h/mL, the bioavailability was found to be 20% and the Cmax stood at 484 ng/mL. Moreover, in series [4], the AUC(0-inf) was found to be 1950 ng·h/mL, the bioavailability is 10%, the half-life was 2.4 h and the Cmax is 358 ng/mL.

A word on the IC50: it is the concentration that gives 50% inhibition. In general, bioavailability refers to dose-corrected exposure relative to a reference, in per cent.
